# Experimental data from US11331289B2, “Antimicrobial composition” (priority 2017, dated 2022).
# Legend:
# MRSA 16116 = assay: Time-killing curve, inoculum 10^6 CFU/ml (MIC 0.5 μg/ml); format: cell-based, Staphylococcus aureus
# Description: (§1) The objective of this study is to assess in vitro the time-killing curves of oxyclozanide against four strains of Methicillin-Resistant Staphylococcus from dogs.
# (§2) Two Methicillin-Resistant Staphylococcus aureus (MRSA) and two Methicillin-Resistant Staphylococcus pseudintermedius (MRSP) isolated from the clinics have been tested.
# (§3) The assessment of time-killing curves has been realized by a broth macrodilution method (Mueller-Hinton II Broth).
# (§4) Oxyclozanide is diluted in (DMSO) into sterile tubes in order to obtain the following concentrations from 800 to 6.25 μg/ml. Those concentrations and stock standard solution are then diluted (1/10) in Mueller-Hinton II Broth in order to obtain the following concentrations from […] (See Table 2).
# (§5) Each operation is performed under sterile conditions. Each working standard solution (10*the final active ingredient concentration) is distributed in tubes (1 ml, for a final volume of 10 ml after addition of 9 ml of inoculum). One tube without active ingredient is used as growth control (Concentration=0).
# (§6) Bacterial isolates are sub-cultured from one cryobead on Columbia agar supplemented with 5% of blood. Pure cultures are incubated during 18-24 hours at 37° C. Three to five isolated colonies of similar appearance are selected from a previous culture and transferred into tubes containing 9 ml of Mueller-Hinton II Broth. The broth is incubated during 12-18 hours at 37° C. 0.5 to 1 ml of this broth is inoculated to another Mueller-Hinton II Broth 9 ml tube which is incubated during 3 to 4 hours at 37° C. to reach the exponential growth phase. The bacterial inoculum grown exponential phase is suspended to an optical density of McFarland standard scale 0.5 equivalent to a bacterial density of 10^8 CFU/ml and then adjusted to a concentration of about 5.10^5 CFU/ml as indicated by the guideline CLSI M26-A and to a second inoculum tested: 10^6 CFU/ml.
# (§7) 9 ml of bacterial inoculum grown to exponential phase is added to 1 ml of active ingredient (or Mueller Hinton II Broth for the growth control). Tubes are incubated at 35° C. during 24 hours.
# (§8) At times 0, 2, 4, 6 and 24 hours, 100 μl of broth of each tube is sampled and diluted in microplates:
# (§9) Each well is re-cultured by streaking 10 μl on Columbia agar supplemented with 5% of blood. Plates are incubated at 37° C. during 18-24 hours incubation. Thus, residual bacterial concentrations are determined (CFU/ml). Results are expressed in log10 values of CFU/ml over-time in broth. Due to the procedure used, the minimal bacterial concentration that can be assessed is 10^2 CFU/ml.
# MRSP 16125 = assay: Time-killing curve, inoculum 5.10^5 CFU/ml (MIC 0.5 μg/ml); format: cell-based, Staphylococcus pseudintermedius
# Description: as §1, §2, §3, §4, §5, §6, §7, §8, §9
# [1] = tested on: Methicillin-Resistant Staphylococcus aureus (MRSA) 16116, 16110; assay: Oxyclo MIC of MRSA strains; format: cell-based
# MRSP 16127 = assay: Time-killing curve, inoculum 10^6 CFU/ml (MIC 0.25 μg/ml); format: cell-based, Staphylococcus pseudintermedius
# Description: as §1, §2, §3, §4, §5, §6, §7, §8, §9
compound,measurement,setting,value
O=C(Nc1cc(Cl)cc(Cl)c1O)c1c(O)c(Cl)cc(Cl)c1Cl [Oxyclozanide],Counting results,"MRSA 16116; 1 MIC, 0 h",1.500E+06 CFU/ml
same,Counting results,"MRSA 16116; 1 MIC, 2 h",3.300E+05 CFU/ml
same,Counting results,"MRSA 16116; 1 MIC, 4 h",3.900E+05 CFU/ml
same,Counting results,"MRSA 16116; 1 MIC, 6 h",1.600E+06 CFU/ml
same,Counting results,"MRSA 16116; 1 MIC, 24 h",2.700E+07 CFU/ml
same,Counting results,"MRSA 16116; 2 MIC, 0 h",1.500E+06 CFU/ml
same,Counting results,"MRSA 16116; 2 MIC, 2 h",2.200E+04 CFU/ml
same,Counting results,"MRSA 16116; 2 MIC, 4 h",1.400E+03 CFU/ml
same,Counting results,"MRSA 16116; 2 MIC, 6 h",5.000E+02 CFU/ml
same,Counting results,"MRSA 16116; 2 MIC, 24 h",5.900E+05 CFU/ml
same,Counting results,"MRSA 16116; 4 MIC, 0 h",1.500E+06 CFU/ml
same,Counting results,"MRSA 16116; 4 MIC, 2 h",2.000E+02 CFU/ml
same,Counting results,"MRSA 16116; 4 MIC, 4 h",2.000E+02 CFU/ml
same,Counting results,"MRSA 16116; 4 MIC, 6 h",1.000E+02 CFU/ml
same,Counting results,"MRSA 16116; 4 MIC, 24 h",1.000E+02 CFU/ml
same,Counting results,"MRSA 16116; 8 MIC, 0 h",1.500E+06 CFU/ml
same,Counting results,"MRSA 16116; 8 MIC, 2 h",1.000E+02 CFU/ml
same,Counting results,"MRSA 16116; 8 MIC, 4 h",1.000E+02 CFU/ml
same,Counting results,"MRSA 16116; 8 MIC, 6 h",1.000E+02 CFU/ml
same,Counting results,"MRSA 16116; 8 MIC, 24 h",1.000E+02 CFU/ml
same,Counting results,"MRSA 16116; 16 MIC, 0 h",1.500E+06 CFU/ml
same,Counting results,"MRSA 16116; 16 MIC, 2 h",3.000E+02 CFU/ml
same,Counting results,"MRSA 16116; 16 MIC, 4 h",1.000E+02 CFU/ml
same,Counting results,"MRSA 16116; 16 MIC, 6 h",1.000E+02 CFU/ml
same,Counting results,"MRSA 16116; 16 MIC, 24 h",1.000E+02 CFU/ml
same,Time to obtain bactericidal effect at 4 MIC,"MRSA 16116; 16116/10^6 CFU/ml, >=3 log10 decrease in CFU",2 h
same,Counting results,"MRSA 16116; ¼ MIC, 0 h",1.500E+06 CFU/ml
same,Counting results,"MRSA 16116; ¼ MIC, 2 h",2.800E+06 CFU/ml
same,Counting results,"MRSA 16116; ¼ MIC, 4 h",2.600E+07 CFU/ml
same,Counting results,"MRSA 16116; ¼ MIC, 6 h",3.000E+08 CFU/ml
same,Counting results,"MRSA 16116; ¼ MIC, 24 h",3.900E+08 CFU/ml
same,Counting results,"MRSA 16116; ½ MIC, 0 h",1.500E+06 CFU/ml
same,Counting results,"MRSA 16116; ½ MIC, 2 h",3.000E+06 CFU/ml
same,Counting results,"MRSA 16116; ½ MIC, 4 h",3.600E+07 CFU/ml
same,Counting results,"MRSA 16116; ½ MIC, 6 h",2.300E+08 CFU/ml
same,Counting results,"MRSA 16116; ½ MIC, 24 h",3.100E+08 CFU/ml
same,Counting results,"MRSP 16125; 1 MIC, 0 h",4.000E+05 CFU/ml
same,Counting results,"MRSP 16125; 1 MIC, 2 h",2.600E+04 CFU/ml
same,Counting results,"MRSP 16125; 1 MIC, 4 h",1.900E+04 CFU/ml
same,Counting results,"MRSP 16125; 1 MIC, 6 h",1.300E+04 CFU/ml
same,Counting results,"MRSP 16125; 1 MIC, 24 h",6.000E+05 CFU/ml
same,Counting results,"MRSP 16125; 2 MIC, 0 h",4.000E+05 CFU/ml
same,Counting results,"MRSP 16125; 2 MIC, 2 h",1.000E+02 CFU/ml
same,Counting results,"MRSP 16125; 2 MIC, 4 h",3.000E+02 CFU/ml
same,Counting results,"MRSP 16125; 2 MIC, 6 h",1.000E+02 CFU/ml
same,Counting results,"MRSP 16125; 2 MIC, 24 h",2.000E+02 CFU/ml
same,Counting results,"MRSP 16125; 4 MIC, 0 h",4.000E+05 CFU/ml
same,Counting results,"MRSP 16125; 4 MIC, 2 h",1.000E+02 CFU/ml
same,Counting results,"MRSP 16125; 4 MIC, 4 h",1.000E+02 CFU/ml
same,Counting results,"MRSP 16125; 4 MIC, 6 h",1.000E+02 CFU/ml
same,Counting results,"MRSP 16125; 4 MIC, 24 h",1.000E+02 CFU/ml
same,Counting results,"MRSP 16125; 8 MIC, 0 h",4.000E+05 CFU/ml
same,Counting results,"MRSP 16125; 8 MIC, 2 h",1.000E+02 CFU/ml
same,Counting results,"MRSP 16125; 8 MIC, 4 h",1.000E+02 CFU/ml
same,Counting results,"MRSP 16125; 8 MIC, 6 h",1.000E+02 CFU/ml
same,Counting results,"MRSP 16125; 8 MIC, 24 h",1.000E+02 CFU/ml
same,Counting results,"MRSP 16125; 16 MIC, 0 h",4.000E+05 CFU/ml
same,Counting results,"MRSP 16125; 16 MIC, 2 h",1.000E+02 CFU/ml
same,Counting results,"MRSP 16125; 16 MIC, 4 h",1.000E+02 CFU/ml
same,Counting results,"MRSP 16125; 16 MIC, 6 h",1.000E+02 CFU/ml
same,Counting results,"MRSP 16125; 16 MIC, 24 h",1.000E+02 CFU/ml
same,Time to obtain bactericidal effect at 4 MIC,"MRSP 16125; 16125/5.10^5 CFU/ml, >=3 log10 decrease in CFU",2 h
same,Counting results,"MRSP 16125; ¼ MIC, 0 h",4.000E+05 CFU/ml
same,Counting results,"MRSP 16125; ¼ MIC, 2 h",5.500E+05 CFU/ml
same,Counting results,"MRSP 16125; ¼ MIC, 4 h",2.600E+06 CFU/ml
same,Counting results,"MRSP 16125; ¼ MIC, 6 h",1.600E+07 CFU/ml
same,Counting results,"MRSP 16125; ¼ MIC, 24 h",4.900E+10 CFU/ml
same,Counting results,"MRSP 16125; ½ MIC, 0 h",4.000E+05 CFU/ml
same,Counting results,"MRSP 16125; ½ MIC, 2 h",3.800E+05 CFU/ml
same,Counting results,"MRSP 16125; ½ MIC, 4 h",3.100E+05 CFU/ml
same,Counting results,"MRSP 16125; ½ MIC, 6 h",3.400E+05 CFU/ml
same,Counting results,"MRSP 16125; ½ MIC, 24 h",3.200E+08 CFU/ml
same,MIC,[1]; MRSA 16110,1 µg/mL
same,MIC,[1]; MRSA 16116,0.5 µg/mL
same,Counting results,"MRSP 16127; 1 MIC, 0 h",9.000E+05 CFU/ml
same,Counting results,"MRSP 16127; 1 MIC, 2 h",4.100E+05 CFU/ml
same,Counting results,"MRSP 16127; 1 MIC, 4 h",4.000E+06 CFU/ml
same,Counting results,"MRSP 16127; 1 MIC, 6 h",7.500E+06 CFU/ml
same,Counting results,"MRSP 16127; 1 MIC, 24 h",9.000E+07 CFU/ml
same,Counting results,"MRSP 16127; 2 MIC, 0 h",9.000E+05 CFU/ml
same,Counting results,"MRSP 16127; 2 MIC, 2 h",4.100E+05 CFU/ml
same,Counting results,"MRSP 16127; 2 MIC, 4 h",5.400E+05 CFU/ml
same,Counting results,"MRSP 16127; 2 MIC, 6 h",2.500E+06 CFU/ml
same,Counting results,"MRSP 16127; 2 MIC, 24 h",7.600E+06 CFU/ml
same,Counting results,"MRSP 16127; 4 MIC, 0 h",9.000E+05 CFU/ml
same,Counting results,"MRSP 16127; 4 MIC, 2 h",1.700E+04 CFU/ml
same,Counting results,"MRSP 16127; 4 MIC, 4 h",1.500E+03 CFU/ml
same,Counting results,"MRSP 16127; 4 MIC, 6 h",3.000E+02 CFU/ml
same,Counting results,"MRSP 16127; 4 MIC, 24 h",8.000E+02 CFU/ml
same,Counting results,"MRSP 16127; 8 MIC, 0 h",9.000E+05 CFU/ml
same,Counting results,"MRSP 16127; 8 MIC, 2 h",5.200E+03 CFU/ml
same,Counting results,"MRSP 16127; 8 MIC, 4 h",1.000E+02 CFU/ml
same,Counting results,"MRSP 16127; 8 MIC, 6 h",1.000E+02 CFU/ml
same,Counting results,"MRSP 16127; 8 MIC, 24 h",1.000E+02 CFU/ml
same,Counting results,"MRSP 16127; 16 MIC, 0 h",9.000E+05 CFU/ml
same,Counting results,"MRSP 16127; 16 MIC, 2 h",1.200E+03 CFU/ml
same,Counting results,"MRSP 16127; 16 MIC, 4 h",1.000E+02 CFU/ml
same,Counting results,"MRSP 16127; 16 MIC, 6 h",1.000E+02 CFU/ml
same,Counting results,"MRSP 16127; 16 MIC, 24 h",1.000E+02 CFU/ml
same,Time to obtain bactericidal effect at 4 MIC,"MRSP 16127; 16127/10^6 CFU/ml, >=3 log10 decrease in CFU",4 to 6 h
same,Counting results,"MRSP 16127; ¼ MIC, 0 h",9.000E+05 CFU/ml
same,Counting results,"MRSP 16127; ¼ MIC, 2 h",5.100E+05 CFU/ml
same,Counting results,"MRSP 16127; ¼ MIC, 4 h",4.200E+06 CFU/ml
same,Counting results,"MRSP 16127; ¼ MIC, 6 h",3.000E+07 CFU/ml
same,Counting results,"MRSP 16127; ¼ MIC, 24 h",4.900E+10 CFU/ml
same,Counting results,"MRSP 16127; ½ MIC, 0 h",9.000E+05 CFU/ml
same,Counting results,"MRSP 16127; ½ MIC, 2 h",4.300E+05 CFU/ml
same,Counting results,"MRSP 16127; ½ MIC, 4 h",3.700E+06 CFU/ml
same,Counting results,"MRSP 16127; ½ MIC, 6 h",2.100E+07 CFU/ml
same,Counting results,"MRSP 16127; ½ MIC, 24 h",3.400E+09 CFU/ml
